Consider 8 compounds from PubChem BioAssay (NCI).

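All cell lines were grown in 96-well plates and treated with compound for 48 hours. GI50 is the concentration that inhibits growth by half. The concentration for full growth arrest is given as TGI.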 Some results are limits rather than exact numbers.

Among the test systems are HOP-62 NSCLC; MOLT-4 leukemia; SF-295 CNS; OVCAR-3 ovarian; RPMI-8226 leukemia; SR leukemia; MCF7 breast; OVCAR-5 ovarian; HCC-2998 colon; CCRF-CEM leukemia.
Holding throughout (assay): NCI-60 cell line screen, 48 h

Take `Cc1cc(S(=O)(=O)Nc2nc3ccccc3o2)c(SCc2ccccc2)cc1Cl`: the GI50 with HOP-62 NSCLC is 28.5 µM; in the assay on MOLT-4 leukemia it was 24.4 µM; in the assay on SF-295 CNS, 19.2 µM; with OVCAR-3 ovarian, 16.7 µM; with RPMI-8226 leukemia it was 11.2 µM; in the assay on SR leukemia it was 11.5 µM. For the same compound, the GI50 in the assay with MCF7 breast was 22.4 µM; with OVCAR-5 ovarian, 20.3 µM. The TGI in the assay with HOP-62 NSCLC was greater than 100 µM; with MOLT-4 leukemia, greater than 100 µM; with SF-295 CNS, 57 µM; with OVCAR-3 ovarian, 42.1 µM; in the assay with RPMI-8226 leukemia it was 30.1 µM; in the assay on SR leukemia it was greater than 100 µM. Also, the TGI with MCF7 breast was determined as 78.3 µM; in the assay with OVCAR-5 ovarian it was 46.1 µM.
For the compound `CCN(CCCN(C)C)Cc1cc(I)cc(C)c1O`, the GI50 is 17 µM in the assay with HOP-62 NSCLC; 17.9 µM in the assay with MOLT-4 leukemia; 15.9 µM in the assay with SF-295 CNS; 26.7 µM with OVCAR-3 ovarian; 15.1 µM in the assay on RPMI-8226 leukemia; 1.04 µM in the assay on SR leukemia. Further, the figures for the GI50 in the assay with MCF7 breast, in the assay on OVCAR-5 ovarian and in the assay with HCC-2998 colon were 17.4 µM, 26.8 µM and 16.1 µM, respectively. The TGI in the assay on HOP-62 NSCLC was 34.4 µM; in the assay on MOLT-4 leukemia, 36.5 µM; in the assay on SF-295 CNS it was 31.9 µM; in the assay on OVCAR-3 ovarian it was greater than 100 µM; with RPMI-8226 leukemia it was 34 µM; with SR leukemia it was 14.5 µM. Moreover, the TGI in the assay on MCF7 breast was found to be 35.8 µM; in the assay on OVCAR-5 ovarian, 96.1 µM; in the assay with HCC-2998 colon, 32.2 µM.
In the case of `COc1cc(Nc2nc3cc(N)cc(N)c3nc2-c2ccccc2)cc(OC)c1OC`, the GI50 in the assay with HOP-62 NSCLC was 16.3 µM; with MOLT-4 leukemia it was 2.57 µM; in the assay on SF-295 CNS it was 16 µM; in the assay on CCRF-CEM leukemia, 4.4 µM; in the assay on OVCAR-3 ovarian, 14.2 µM; in the assay on RPMI-8226 leukemia it was 12.4 µM. Besides, the GI50 in the assay with SR leukemia was 3.31 µM; in the assay on MCF7 breast, 25.5 µM; in the assay on OVCAR-5 ovarian it was 21.3 µM. The TGI with HOP-62 NSCLC was 34.3 µM; with MOLT-4 leukemia it was 18 µM; in the assay with SF-295 CNS, 42.8 µM; in the assay with CCRF-CEM leukemia, 42 µM; in the assay on OVCAR-3 ovarian, 37.1 µM; in the assay on RPMI-8226 leukemia it was 32.4 µM. Also, the TGI came to 16 µM with SR leukemia, 94.5 µM with MCF7 breast and 46.7 µM in the assay on OVCAR-5 ovarian.
For `Cc1cc(O)c(=O)cc2c1C[C@H]1CC(C)(C)/C=C/C[C@]3(C)Oc4cc(=O)c(O)cc(C)c4C[C@H]3C[C@H](O)[C@@]1(C)O2`, the GI50 in the assay with HOP-62 NSCLC is 0.02 µM; with CCRF-CEM leukemia, 0.0163 µM; with OVCAR-3 ovarian, less than 0.01 µM; in the assay on RPMI-8226 leukemia it was 0.0185 µM; with SR leukemia it was less than 0.0115 µM; with MCF7 breast, less than 0.01 µM. Further, the GI50 in the assay with OVCAR-5 ovarian is 0.0434 µM; with HCC-2998 colon it was less than 0.0149 µM. Also, the TGI in the assay on HOP-62 NSCLC was 0.0987 µM; with CCRF-CEM leukemia it was 1.21 µM; in the assay on OVCAR-3 ovarian, 19.6 µM; in the assay with RPMI-8226 leukemia, 2.97 µM; in the assay on SR leukemia, 0.591 µM; in the assay on MCF7 breast, greater than 100 µM. In addition, the TGI with OVCAR-5 ovarian and in the assay with HCC-2998 colon was greater than 100 µM in each case.
In the case of `OCCN1CCN(CCCN2c3ccccc3Sc3ccc(Cl)cc32)CC1`, the GI50 was 3.02 µM in the assay on HOP-62 NSCLC; 2.4 µM in the assay with MOLT-4 leukemia; 1.75 µM in the assay on SF-295 CNS; 2.2 µM with CCRF-CEM leukemia; 2.59 µM with OVCAR-3 ovarian; 2.29 µM in the assay with RPMI-8226 leukemia. The GI50 was 2.02 µM with MCF7 breast, 3.12 µM in the assay with OVCAR-5 ovarian and 1.5 µM in the assay with HCC-2998 colon. For the same compound, the TGI in the assay with HOP-62 NSCLC amounted to 12.7 µM; in the assay on MOLT-4 leukemia it was 5.79 µM; in the assay on SF-295 CNS, 3.65 µM; in the assay on CCRF-CEM leukemia it was 6.24 µM; in the assay on OVCAR-3 ovarian it was 6.73 µM; in the assay with RPMI-8226 leukemia, 6.7 µM. Moreover, the TGI stood at 3.96 µM with MCF7 breast, 12.1 µM in the assay with OVCAR-5 ovarian and 2.98 µM in the assay on HCC-2998 colon.
Take `COc1ccc(C(c2cc(OC)c(OC)c(OC)c2)n2ccnc2)cc1O` (stereo unspecified): the GI50 in the assay with HOP-62 NSCLC was 0.516 µM; in the assay on MOLT-4 leukemia, 0.565 µM; in the assay with CCRF-CEM leukemia it was 0.289 µM; in the assay on OVCAR-3 ovarian, 0.264 µM; in the assay with RPMI-8226 leukemia it was 0.385 µM; with SR leukemia it was 0.182 µM. For the same compound, the GI50 was 0.339 µM in the assay on MCF7 breast, 0.648 µM in the assay with OVCAR-5 ovarian and 1.72 µM in the assay on HCC-2998 colon. Besides, the TGI in the assay on HOP-62 NSCLC was greater than 100 µM; with MOLT-4 leukemia, greater than 100 µM; in the assay on CCRF-CEM leukemia, greater than 100 µM; with OVCAR-3 ovarian it was 0.857 µM; in the assay with RPMI-8226 leukemia, greater than 100 µM; in the assay on SR leukemia, greater than 100 µM. Moreover, the TGI with MCF7 breast, in the assay on OVCAR-5 ovarian and in the assay with HCC-2998 colon was greater than 100 µM in each case.
As to `O=S(=O)(NCCCNc1nccc(-c2c(-c3ccc(O)cc3)nc3sccn23)n1)c1ccc(F)cc1`, the GI50 was 3.67 µM with HOP-62 NSCLC; 2.47 µM in the assay on MOLT-4 leukemia; 1.99 µM in the assay on SF-295 CNS; 2.66 µM in the assay on OVCAR-3 ovarian; 1.58 µM in the assay on RPMI-8226 leukemia; 2.07 µM in the assay with SR leukemia. The GI50 was 2.16 µM in the assay on MCF7 breast, 5.58 µM with OVCAR-5 ovarian and 3.37 µM in the assay on HCC-2998 colon. The TGI with HOP-62 NSCLC is 14.9 µM; in the assay on MOLT-4 leukemia, 8.81 µM; with SF-295 CNS, 4.56 µM; with OVCAR-3 ovarian it was 12.1 µM; in the assay with RPMI-8226 leukemia, 4.72 µM; in the assay with SR leukemia, greater than 100 µM. For the same compound, the TGI was 5.91 µM with MCF7 breast, greater than 100 µM in the assay on OVCAR-5 ovarian and 6.93 µM in the assay on HCC-2998 colon.
Take `CC(C)c1[nH]nc(C(N)=O)c1N=NN(C)C`: the TGI in the assay on HOP-62 NSCLC, with MOLT-4 leukemia, with SF-295 CNS, with CCRF-CEM leukemia, in the assay on OVCAR-3 ovarian and in the assay with RPMI-8226 leukemia was greater than 100 µM each time. Besides, the TGI in the assay on SR leukemia was 71.2 µM; in the assay on MCF7 breast it was greater than 100 µM; in the assay on HCC-2998 colon, greater than 100 µM.
